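Grown in 96-well plates, cells were treated for 48 hours with each compound at five concentrations. Insufficient inhibition: endpoint recorded as highest concentration tested. Definition used: TGI = concentration required for complete inhibition of growth.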
Assays:
Test in all cases: NCI-60 cell line screen, 48 h
[1] = test system: NCI-H460 lung
[2] = test system: SR leukemia
[3] = test system: SK-OV-3 ovarian
[4] = test system: SW-620 colon
[5] = test system: KM20L2 colon
[6] = test system: K-562 leukemia
[7] = test system: OVCAR-8 ovarian
[8] = test system: RXF 393 renal
[9] = test system: SK-MEL-5 melanoma
[10] = test system: HCT-15 colon
[11] = test system: M19-MEL melanoma
[12] = test system: CCRF-CEM leukemia
[13] = test system: MOLT-4 leukemia
[14] = test system: CAKI-1 renal
[15] = test system: SF-268 CNS
[16] = test system: EKVX NSCLC
[17] = test system: SF-539 CNS
[18] = test system: MALME-3M melanoma
[19] = test system: HOP-62 NSCLC
[20] = test system: DMS 273 small cell lung
[21] = test system: HCC-2998 colon
[22] = test system: SK-MEL-28 melanoma
[23] = test system: DLD-1 colon
[24] = test system: SK-MEL-2 melanoma
[25] = test system: IGROV1 ovarian
[26] = test system: U251 CNS
[27] = test system: TK-10 renal
[28] = test system: UO-31 renal
[29] = test system: UACC-257 melanoma
[30] = test system: A498 renal
[31] = test system: 786-0 renal
[32] = test system: UACC-62 melanoma
[33] = test system: SNB-75 CNS
[34] = test system: NCI-H226 lung
[35] = test system: SNB-19 CNS
[36] = test system: NCI-H23 lung
[37] = test system: LXFL 529 NSCLC
[38] = test system: HT29 colon
[39] = test system: COLO 205 colon
[40] = test system: OVCAR-3 ovarian
[41] = test system: DMS 114 small cell lung
[42] = test system: HCT-116 colon
[43] = test system: SN12C renal
[44] = test system: A549 NSCLC
[45] = test system: HOP-92 NSCLC
[46] = test system: OVCAR-4 ovarian
[47] = test system: NCI-H522 lung
[48] = test system: LOX IMVI melanoma
[49] = test system: SF-295 CNS
[50] = test system: ACHN renal
[51] = test system: M14 melanoma
[52] = test system: HL-60(TB) leukemia
[53] = test system: HOP-18 NSCLC
[54] = test system: KM12 colon
[55] = test system: SNB-78 CNS
[56] = test system: RPMI-8226 leukemia
[57] = test system: XF 498 CNS
[58] = test system: OVCAR-5 ovarian

## N#C/C(=C\c1ccc(O)c(O)c1)C(N)=S
[1]
  TGI: > 100 µM
[2]
  TGI: > 100 µM
[3]
  TGI: > 100 µM
[4]
  TGI: > 100 µM
[5]
  TGI: > 100 µM
[6]
  TGI: > 100 µM
[7]
  TGI: > 100 µM
[8]
  TGI: > 89.7 µM
[9]
  TGI: > 100 µM
[10]
  TGI: > 100 µM
[11]
  TGI: > 100 µM
[12]
  TGI: > 55.3 µM
[13]
  TGI: > 100 µM
[14]
  TGI: > 100 µM
[15]
  TGI: > 100 µM
[16]
  TGI: > 100 µM
[17]
  TGI: > 100 µM
[18]
  TGI: > 100 µM
[19]
  TGI: > 100 µM
[20]
  TGI: > 100 µM
[21]
  TGI: > 100 µM
[22]
  TGI: > 100 µM
[23]
  TGI: > 100 µM
[24]
  TGI: > 100 µM
[25]
  TGI: > 100 µM
[26]
  TGI: > 100 µM
[27]
  TGI: > 100 µM
[28]
  TGI: > 100 µM
[29]
  TGI: 97.7 µM
[30]
  TGI: > 100 µM
[31]
  TGI: > 100 µM
[32]
  TGI: > 100 µM
[33]
  TGI: > 100 µM
[34]
  TGI: > 100 µM
[35]
  TGI: > 100 µM
[36]
  TGI: > 100 µM
[37]
  TGI: > 100 µM
[38]
  TGI: > 100 µM
[39]
  TGI: > 100 µM
[40]
  TGI: > 100 µM
[41]
  TGI: > 100 µM
[42]
  TGI: > 100 µM
[43]
  TGI: > 100 µM
[44]
  TGI: > 100 µM
[45]
  TGI: > 100 µM
[46]
  TGI: > 100 µM
[47]
  TGI: 75.9 µM
[48]
  TGI: > 100 µM
[49]
  TGI: > 100 µM
[50]
  TGI: > 100 µM
[51]
  TGI: > 100 µM
[52]
  TGI: > 20 µM
[53]
  TGI: > 100 µM
[54]
  TGI: > 100 µM
[55]
  TGI: > 100 µM
[56]
  TGI: > 100 µM
[57]
  TGI: > 100 µM
[58]
  TGI: > 100 µM

## O=[N+]([O-])C1C2C=CC(C2)[C@H]1c1ccco1 (stereo partly drawn)
[1]
  TGI: > 100 µM
[2]
  TGI: > 100 µM
[3]
  TGI: > 100 µM
[4]
  TGI: > 100 µM
[5]
  TGI: > 100 µM
[6]
  TGI: > 100 µM
[7]
  TGI: > 100 µM
[8]
  TGI: > 100 µM
[9]
  TGI: > 100 µM
[10]
  TGI: > 100 µM
[11]
  TGI: > 100 µM
[12]
  TGI: > 100 µM
[13]
  TGI: > 100 µM
[14]
  TGI: > 100 µM
[15]
  TGI: > 100 µM
[16]
  TGI: > 100 µM
[17]
  TGI: > 100 µM
[18]
  TGI: > 100 µM
[19]
  TGI: > 100 µM
[20]
  TGI: > 100 µM
[21]
  TGI: > 100 µM
[23]
  TGI: > 100 µM
[24]
  TGI: > 100 µM
[25]
  TGI: > 100 µM
[26]
  TGI: > 100 µM
[27]
  TGI: > 100 µM
[28]
  TGI: > 100 µM
[29]
  TGI: > 100 µM
[30]
  TGI: > 100 µM
[31]
  TGI: > 100 µM
[32]
  TGI: > 100 µM
[33]
  TGI: > 100 µM
[34]
  TGI: > 100 µM
[35]
  TGI: > 100 µM
[36]
  TGI: 2.36 µM
[37]
  TGI: > 100 µM
[38]
  TGI: 9.22 µM
[39]
  TGI: > 100 µM
[40]
  TGI: > 100 µM
[41]
  TGI: > 100 µM
[42]
  TGI: > 100 µM
[43]
  TGI: > 100 µM
[44]
  TGI: > 100 µM
[45]
  TGI: 18.4 µM
[46]
  TGI: > 100 µM
[47]
  TGI: > 100 µM
[48]
  TGI: > 100 µM
[49]
  TGI: > 100 µM
[50]
  TGI: > 100 µM
[51]
  TGI: > 100 µM
[52]
  TGI: > 100 µM
[54]
  TGI: > 100 µM
[55]
  TGI: > 100 µM
[57]
  TGI: > 100 µM
[58]
  TGI: > 100 µM
